These results are taken from US8796470B2 (AbbVie Inc., priority 2010, dated 2014).

Bounds are passed on as bounds.

For the test, the target named is T1, human Cav2.2 (Homo sapiens, UniProt Q00975).
T1 construct: IMR32 cells endogenously expressing human Cav2.2; endogenous in cells; host or cells: IMR32 cells (human neuroblastoma)
T1 sequence (Q00975 whole entry): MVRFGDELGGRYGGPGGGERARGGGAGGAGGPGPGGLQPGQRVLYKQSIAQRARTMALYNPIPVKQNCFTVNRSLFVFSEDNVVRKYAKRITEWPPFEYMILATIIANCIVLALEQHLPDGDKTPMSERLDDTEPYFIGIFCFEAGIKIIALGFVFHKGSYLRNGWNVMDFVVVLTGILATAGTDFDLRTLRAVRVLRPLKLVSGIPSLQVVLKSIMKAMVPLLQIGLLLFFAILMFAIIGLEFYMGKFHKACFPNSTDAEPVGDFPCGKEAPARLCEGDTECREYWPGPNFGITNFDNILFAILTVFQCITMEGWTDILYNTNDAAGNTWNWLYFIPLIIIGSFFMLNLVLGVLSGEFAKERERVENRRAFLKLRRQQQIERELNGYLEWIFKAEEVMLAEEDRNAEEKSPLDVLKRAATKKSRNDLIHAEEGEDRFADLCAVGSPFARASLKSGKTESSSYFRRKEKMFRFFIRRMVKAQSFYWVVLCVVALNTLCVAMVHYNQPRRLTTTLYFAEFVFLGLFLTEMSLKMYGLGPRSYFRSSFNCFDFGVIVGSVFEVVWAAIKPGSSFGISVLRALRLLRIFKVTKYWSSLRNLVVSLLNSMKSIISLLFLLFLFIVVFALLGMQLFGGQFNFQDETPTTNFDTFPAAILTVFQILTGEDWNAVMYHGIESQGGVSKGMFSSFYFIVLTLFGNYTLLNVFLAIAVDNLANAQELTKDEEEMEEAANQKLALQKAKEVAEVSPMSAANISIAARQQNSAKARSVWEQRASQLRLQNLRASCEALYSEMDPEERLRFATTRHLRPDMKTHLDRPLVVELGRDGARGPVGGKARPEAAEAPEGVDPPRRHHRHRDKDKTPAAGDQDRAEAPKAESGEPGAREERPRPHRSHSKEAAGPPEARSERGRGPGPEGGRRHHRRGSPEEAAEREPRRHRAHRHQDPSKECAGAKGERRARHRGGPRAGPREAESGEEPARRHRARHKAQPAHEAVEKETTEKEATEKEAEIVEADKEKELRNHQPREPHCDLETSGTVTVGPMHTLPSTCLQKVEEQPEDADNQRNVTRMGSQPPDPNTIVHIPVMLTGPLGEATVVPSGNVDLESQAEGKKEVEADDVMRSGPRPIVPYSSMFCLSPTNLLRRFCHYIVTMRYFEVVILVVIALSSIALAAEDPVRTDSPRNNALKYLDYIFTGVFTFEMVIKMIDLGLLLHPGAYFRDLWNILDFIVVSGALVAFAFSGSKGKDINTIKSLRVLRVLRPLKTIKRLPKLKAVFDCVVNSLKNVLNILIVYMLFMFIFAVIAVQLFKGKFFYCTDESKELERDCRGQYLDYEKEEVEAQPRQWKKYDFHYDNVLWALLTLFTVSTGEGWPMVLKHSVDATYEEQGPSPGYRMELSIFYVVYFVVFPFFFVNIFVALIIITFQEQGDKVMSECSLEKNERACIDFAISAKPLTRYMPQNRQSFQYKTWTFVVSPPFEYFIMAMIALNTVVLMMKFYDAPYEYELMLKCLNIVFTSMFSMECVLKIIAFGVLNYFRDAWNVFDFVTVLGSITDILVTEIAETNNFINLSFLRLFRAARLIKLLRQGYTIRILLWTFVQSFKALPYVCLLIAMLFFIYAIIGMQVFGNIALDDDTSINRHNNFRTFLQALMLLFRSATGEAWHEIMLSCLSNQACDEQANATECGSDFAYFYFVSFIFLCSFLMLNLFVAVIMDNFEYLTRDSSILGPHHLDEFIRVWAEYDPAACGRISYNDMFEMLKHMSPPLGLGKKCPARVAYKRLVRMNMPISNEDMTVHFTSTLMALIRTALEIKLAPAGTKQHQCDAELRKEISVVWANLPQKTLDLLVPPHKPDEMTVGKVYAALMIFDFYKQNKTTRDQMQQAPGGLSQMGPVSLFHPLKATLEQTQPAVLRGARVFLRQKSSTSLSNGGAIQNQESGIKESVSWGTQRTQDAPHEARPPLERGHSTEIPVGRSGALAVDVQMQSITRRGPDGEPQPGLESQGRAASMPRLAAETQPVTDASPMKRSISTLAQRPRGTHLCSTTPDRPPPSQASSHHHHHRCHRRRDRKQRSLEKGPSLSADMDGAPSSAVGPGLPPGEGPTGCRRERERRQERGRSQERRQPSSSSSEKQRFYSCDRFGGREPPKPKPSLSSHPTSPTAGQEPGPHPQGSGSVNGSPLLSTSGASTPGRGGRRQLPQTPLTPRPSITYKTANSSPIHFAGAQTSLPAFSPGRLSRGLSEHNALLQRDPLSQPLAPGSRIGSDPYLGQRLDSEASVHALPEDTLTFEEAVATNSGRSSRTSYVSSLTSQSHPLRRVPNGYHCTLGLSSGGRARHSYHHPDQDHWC
T1 sequence (P54289 25-956 partner limits assumed): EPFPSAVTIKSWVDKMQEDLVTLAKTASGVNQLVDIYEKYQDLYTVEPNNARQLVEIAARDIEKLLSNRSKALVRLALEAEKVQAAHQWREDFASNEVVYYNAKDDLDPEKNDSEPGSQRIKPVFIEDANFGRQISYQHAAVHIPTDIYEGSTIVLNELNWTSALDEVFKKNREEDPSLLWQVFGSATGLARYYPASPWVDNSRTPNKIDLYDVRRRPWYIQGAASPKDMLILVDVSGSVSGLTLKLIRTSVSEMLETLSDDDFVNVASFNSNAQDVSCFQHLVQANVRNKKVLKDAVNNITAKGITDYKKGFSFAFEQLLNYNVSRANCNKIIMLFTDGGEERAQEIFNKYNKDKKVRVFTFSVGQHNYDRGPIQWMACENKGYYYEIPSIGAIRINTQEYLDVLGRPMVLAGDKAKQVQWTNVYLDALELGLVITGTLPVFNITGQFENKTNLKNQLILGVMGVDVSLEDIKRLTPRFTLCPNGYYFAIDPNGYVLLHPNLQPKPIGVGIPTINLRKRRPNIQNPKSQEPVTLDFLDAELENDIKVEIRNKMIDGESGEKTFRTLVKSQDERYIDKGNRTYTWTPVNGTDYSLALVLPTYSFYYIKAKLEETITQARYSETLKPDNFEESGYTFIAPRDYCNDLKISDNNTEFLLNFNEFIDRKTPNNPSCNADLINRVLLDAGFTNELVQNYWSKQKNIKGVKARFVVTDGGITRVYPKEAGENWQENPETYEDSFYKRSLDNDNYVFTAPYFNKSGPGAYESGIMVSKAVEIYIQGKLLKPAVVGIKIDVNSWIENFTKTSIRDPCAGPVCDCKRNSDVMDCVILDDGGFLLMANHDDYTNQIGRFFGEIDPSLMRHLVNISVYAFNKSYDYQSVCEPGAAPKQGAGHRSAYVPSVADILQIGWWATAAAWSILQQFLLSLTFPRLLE
T1 sequence (P54289 957-1103 partner limits assumed): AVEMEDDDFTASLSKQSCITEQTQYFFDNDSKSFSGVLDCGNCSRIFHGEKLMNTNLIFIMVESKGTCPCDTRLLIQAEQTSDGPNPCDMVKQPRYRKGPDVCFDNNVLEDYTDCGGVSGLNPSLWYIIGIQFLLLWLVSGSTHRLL
T1 sequence (P54284 whole entry partner): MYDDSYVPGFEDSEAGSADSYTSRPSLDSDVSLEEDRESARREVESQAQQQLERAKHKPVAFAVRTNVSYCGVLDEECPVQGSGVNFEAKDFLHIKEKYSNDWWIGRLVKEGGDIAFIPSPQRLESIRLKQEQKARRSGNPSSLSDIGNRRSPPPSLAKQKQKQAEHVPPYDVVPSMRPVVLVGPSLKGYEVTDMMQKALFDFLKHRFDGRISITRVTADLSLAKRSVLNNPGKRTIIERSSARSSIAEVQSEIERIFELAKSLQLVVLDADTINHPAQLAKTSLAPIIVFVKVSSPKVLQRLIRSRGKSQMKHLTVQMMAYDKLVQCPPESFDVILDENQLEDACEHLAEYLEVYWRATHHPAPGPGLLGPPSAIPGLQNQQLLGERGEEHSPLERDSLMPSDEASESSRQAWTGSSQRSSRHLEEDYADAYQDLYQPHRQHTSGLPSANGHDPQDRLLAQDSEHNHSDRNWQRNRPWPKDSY
Briefly: Assessment of calcium channel activity using FLIPR (Ca2+ influx in IMR32 cells). It counts as cell-based. As to conditions: IMR32 cells endogenously expressing human Cav2.2, Calcium 4 dye, 60 minute pre-incubation, 2 μM nifedipine, depolarized with 80 mM KCl, 5 mM CaCl2. How it is done:
(i) In Vitro Methods—Assessment of Calcium Channel Activity Using FLIPR:
IMR32 cells endogenously expressing human Cav2.2 were assayed for Ca^2+ influx using a no-wash calcium indicator dye (Calcium 4 dye: Molecular Probes) and FLIPR technology (Lubin, M. L.; Reitz, T. L.; Todd, M. J.; Flores, C. M.; Qin, N.; Xin, H. Assay and Drug Development Technologies 2006, 4(6), 689-694.). The IMR32 cells were maintained in MEM media containing 10% (v/v) FBS, 1% (v/v) antibiotic/antimitotic, 1% (v/v) sodium pyruvate and 1% (v/v) MEM NEAA. Following dissociation in 0.05% (v/v) trypsin/EDTA, cells were seeded into black 1×96-well plates (Corning Cellbind) at a density of 1−1.2×10^5 cells/well and incubated in the maintenance media above for 48 hours at 37° C. Immediately prior to performing the assay the media was removed and cells were loaded for 1.5 hours with 1×Calcium 4 dye prepared in HBSS (137 mM NaCl, 5.4 mM KCl, 0.25 mM Na2HPO4, 0.44 mM KH2PO4, 1.3 mM CaCl2, 1 mM MgSO4, 4.2 mM NaHCO3) containing HEPES pH 7.4 at room temperature. After dye loading and a subsequent 60 minute pre-incubation with compounds (full log dilutions from 10 μM to 0.1 nM) in the presence of 1.3 mM CaCl2 and 2 μM nifedipine to block endogenous L-type channels, the external Ca^2+ concentration was increased to 5 mM CaCl2 and the cells concomitantly depolarized with 80 mM KCl to assay channel activity. To determine the IC50 values, the percent inhibition of the compound at each concentration was determined relative to the activity in the absence of inhibitor, and data was fitted using non-linear regression sigmoidal dose response curve analysis with GraphPad Prism®.
As to `Cc1cn([C@H]2CC[C@@H]3CN(c4cccc(C(F)(F)F)n4)C[C@@H]32)cn1` [Example 67, (3aR,4S,6aS)-4-(4-methyl-1H-imidazol-1-yl)-2-[6-(trifluoromethyl)pyridin-2-yl]octahydrocyclopenta[c]pyrrole], the half-inhibitory concentration (IC50) (in general, the point on the concentration scale where inhibition reaches its midpoint) was 4.33 µM.

With `C[C@@]1(NC(=O)c2ccccc2)CC[C@@H]2CN(c3cccc(C(F)(F)F)n3)C[C@@H]21` [Example 14, N-{(3aR,4R,6aS)-4-methyl-2-[6-(trifluoromethyl)pyridin-2-yl]octahydrocyclopenta[c]pyrrol-4-yl}benzamide], the IC50 worked out at 2.14 µM.

Turning to `C[C@@]1(N)CC[C@@H]2CN(c3cccc(C(F)(F)F)n3)C[C@@H]21` [Example 26, (3aR,4R,6aS)-4-methyl-2-[6-(trifluoromethyl)pyridin-2-yl]octahydrocyclopenta[c]pyrrol-4-amine], the 50% inhibitory concentration (IC50) was found to be 3.64 µM.

For the compound `Fc1cccc2ncn([C@H]3CC[C@@H]4CN(c5cccc(C(F)(F)F)n5)C[C@@H]43)c12` [Example 64, 7-fluoro-1-{(3aR,4S,6aS)-2-[6-(trifluoromethyl)pyridin-2-yl]octahydrocyclopenta[c]pyrrol-4-yl}-1H-benzimidazole], the IC50 was 3.6 µM.

In the case of `CN[C@@H](CC(C)C)C(=O)N[C@@]1(C)CC[C@@H]2CN(c3cccc(C(F)(F)F)n3)C[C@@H]21` [Example 71, N^2-methyl-N-{(3aR,4S,6aS)-4-methyl-2-[6-(trifluoromethyl)pyridin-2-yl]octahydrocyclopenta[c]pyrrol-4-yl}-L-leucinamide], the IC50 amounted to 0.78 µM.

In the case of `C[C@]1(N)CC[C@@H]2CN(c3cccc(C(F)(F)F)n3)C[C@@H]21` [Example 27, (3aR,4S,6aS)-4-methyl-2-[6-(trifluoromethyl)pyridin-2-yl]octahydrocyclopenta[c]pyrrol-4-amine], the half-inhibitory concentration (IC50) came to 1.8 µM.

Take `Fc1cccc(O[C@H]2CC[C@@H]3CN(c4cccc(C(F)(F)F)n4)C[C@@H]32)c1` [Example 44, (3aR,4S,6aS)-4-(3-fluorophenoxy)-2-[6-(trifluoromethyl)pyridin-2-yl]octahydrocyclopenta[c]pyrrole]: the 50% inhibitory concentration (IC50) was determined as 6.01 µM.

`C[C@]1(NC(=O)c2ccccc2)CC[C@@H]2CNC[C@@H]21` [Example 9, N-[(3aR,4S,6aS)-4-methyloctahydrocyclopenta[c]pyrrol-4-yl]benzamide]: the IC50 was more than 30 µM.

Regarding `FC(F)(F)c1cccc(N2C[C@H]3CC[C@H](n4cnc(-c5ccccc5)c4)[C@H]3C2)n1` [Example 58, (3aR,4S,6aS)-4-(4-phenyl-1H-imidazol-1-yl)-2-[6-(trifluoromethyl)pyridin-2-yl]octahydrocyclopenta[c]pyrrole], the IC50 stood at 3.15 µM.

Consider `C[C@]1(NC(=O)CCC(F)(F)F)CC[C@@H]2CN(c3cccc(C(F)(F)F)n3)C[C@@H]21` [Example 72, 4,4,4-trifluoro-N-{(3aR,4S,6aS)-4-methyl-2-[6-(trifluoromethyl)pyridin-2-yl]octahydrocyclopenta[c]pyrrol-4-yl}butanamide], for which the concentration for half-maximal inhibition (IC50) turned out to be 1.15 µM.

With `C[C@]1(NC(=O)c2cccc(F)c2)CC[C@@H]2CN(Cc3ccccc3)C[C@@H]21` [Example 7, N-[(3aR,4S,6aS)-2-benzyl-4-methyloctahydrocyclopenta[c]pyrrol-4-yl]-3-fluorobenzamide], the 50% inhibitory concentration (IC50) came out at 5.16 µM.

Turning to `FC(F)(F)c1cccc(N2C[C@H]3CC[C@H](n4ccnc4)[C@H]3C2)n1` [Example 50, (3aR,4S,6aS)-4-(1H-imidazol-1-yl)-2-[6-(trifluoromethyl)pyridin-2-yl]octahydrocyclopenta[c]pyrrole], the IC50 was 4.3 µM.

As for `O[C@]1(Cc2ccc(F)c(F)c2)CC[C@@H]2CN(c3cccc(C(F)(F)F)n3)C[C@@H]21` [Example 37, (3aR,4S,6aS)-4-(3,4-difluorobenzyl)-2-[6-(trifluoromethyl)pyridin-2-yl]octahydrocyclopenta[c]pyrrol-4-ol], the IC50 worked out at 3.72 µM.

As for `C[C@@]1(NCc2ccccc2)CC[C@@H]2CN(c3cccc(C(F)(F)F)n3)C[C@@H]21` [Example 21, (3aR,4R,6aS)—N-benzyl-4-methyl-2-[6-(trifluoromethyl)pyridin-2-yl]octahydrocyclopenta[c]pyrrol-4-amine], the IC50 was 1.03 µM.

Consider `Fc1cccc(O[C@H]2CC[C@@H]3CN(Cc4ccccc4)C[C@@H]32)c1` [Example 48, (3aR,4S,6aS)-2-benzyl-4-(3-fluorophenoxy)octahydrocyclopenta[c]pyrrole], for which the IC50 stood at 2.95 µM.

`CC(C)(C)OC(=O)N1C[C@H]2CC[C@H](C(=O)Nc3cccc(F)c3)[C@H]2C1` [Example 54]: the IC50 was found to be 11.6 µM.

As for `C[C@@]1(NC(=O)c2cccc(F)c2)CC[C@@H]2CN(Cc3ccccc3)C[C@@H]21` [Example 6, N-[(3aR,4R,6aS)-2-benzyl-4-methyloctahydrocyclopenta[c]pyrrol-4-yl]-3-fluorobenzamide], the IC50 turned out to be 17.7 µM.

As to `FC(F)(F)c1cccc(N2C[C@H]3CC[C@H](n4cnc(-c5ccc(Cl)cc5)c4)[C@H]3C2)n1` [Example 57, (3aR,4S,6aS)-4-[4-(4-chlorophenyl)-1H-imidazol-1-yl]-2-[6-(trifluoromethyl)pyridin-2-yl]octahydrocyclopenta[c]pyrrole], the IC50 is 5.79 µM.

Take `Cc1cnn([C@H]2CC[C@@H]3CN(c4cccc(C(F)(F)F)n4)C[C@@H]32)c1` [Example 63, (3aR,4S,6aS)-4-(4-methyl-1H-pyrazol-1-yl)-2-[6-(trifluoromethyl)pyridin-2-yl]octahydrocyclopenta[c]pyrrole]: the concentration for half-maximal inhibition (IC50) is 2.78 µM.

For the compound `Cc1nccn1[C@H]1CC[C@@H]2CN(c3cccc(C(F)(F)F)n3)C[C@@H]21` [Example 61, (3aR,4S,6aS)-4-(2-methyl-1H-imidazol-1-yl)-2-[6-(trifluoromethyl)pyridin-2-yl]octahydrocyclopenta[c]pyrrole], the concentration for half-maximal inhibition (IC50) is 3.57 µM.

In the case of `CC(C)O[C@H]1CC[C@@H]2CN(c3cccc(C(F)(F)F)n3)C[C@@H]21` [Example 42, (3aR,4S,6aS)-4-isopropoxy-2-[6-(trifluoromethyl)pyridin-2-yl]octahydrocyclopenta[c]pyrrole], the half-inhibitory concentration (IC50) was 3.82 µM.

Consider `FC(F)(F)c1cccc(N2C[C@H]3CC[C@H](OC[C@@H]4CCCN4)[C@H]3C2)n1` [Example 53, (3aR,4S,6aS)-4-[(2S)-pyrrolidin-2-ylmethoxy]-2-[6-(trifluoromethyl)pyridin-2-yl]octahydrocyclopenta[c]pyrrole], for which the IC50 was 0.66 µM.

For `C[C@@]1(NCc2cccc(F)c2)CC[C@@H]2CN(c3cccc(C(F)(F)F)n3)C[C@@H]21` [Example 24, (3aR,4R,6aS)—N-(3-fluorobenzyl)-4-methyl-2-[6-(trifluoromethyl)pyridin-2-yl]octahydrocyclopenta[c]pyrrol-4-amine], the IC50 is 0.33 µM.

Regarding `C[C@]1(NC(=O)c2ccccc2)CC[C@@H]2CN(Cc3ccccc3)C[C@@H]21` [Example 3, N-[(3aR,4S,6aS)-2-benzyl-4-methyloctahydrocyclopenta[c]pyrrol-4-yl]benzamide], the IC50 is 12 µM.

With `O[C@H]1[C@H]2CN(c3cccc(C(F)(F)F)n3)C[C@H]2C[C@@H]1n1ccnc1` [Example 69, (3aR,4S,5S,6aS)-5-(1H-imidazol-1-yl)-2-[6-(trifluoromethyl)pyridin-2-yl]octahydrocyclopenta[c]pyrrol-4-ol], the 50% inhibitory concentration (IC50) was 9.15 µM.

Turning to `CCN[C@]1(C)CC[C@@H]2CN(c3cccc(C(F)(F)F)n3)C[C@@H]21` [Example 22, (3aR,4R,6aS)—N-ethyl-4-methyl-2-[6-(trifluoromethyl)pyridin-2-yl]octahydrocyclopenta[c]pyrrol-4-amine], the IC50 was found to be 5.85 µM.

On to `FC(F)(F)c1cccc(N2C[C@H]3CC[C@H](n4ccnc4-c4ccccc4)[C@H]3C2)n1` [Example 62, (3aR,4S,6aS)-4-(2-phenyl-1H-imidazol-1-yl)-2-[6-(trifluoromethyl)pyridin-2-yl]octahydrocyclopenta[c]pyrrole], for which the IC50 was determined as 1.03 µM.

Take `O[C@]1(c2cccc(F)c2)CC[C@@H]2CN(c3cccc(C(F)(F)F)n3)C[C@@H]21` [Example 36, (3aR,4R,6aS)-4-(3-fluorophenyl)-2-[6-(trifluoromethyl)pyridin-2-yl]octahydrocyclopenta[c]pyrrol-4-ol]: the half-inhibitory concentration (IC50) worked out at 6.13 µM.

Turning to `O[C@]1(c2ccccc2)CC[C@@H]2CN(c3cccc(C(F)(F)F)n3)C[C@@H]21` [Example 35, (3aR,4R,6aS)-4-phenyl-2-[6-(trifluoromethyl)pyridin-2-yl]octahydrocyclopenta[c]pyrrol-4-ol], the IC50 came out at 2.87 µM.

As to `C=C1CC[C@@H]2CN(Cc3ccccc3)C[C@H]12` [Example 1, (3aS,6aS)-2-benzyl-4-methyleneoctahydrocyclopenta[c]pyrrole], the IC50 was more than 30 µM.

As for `C[C@@]1(NC(=O)c2ccccc2)CC[C@@H]2CNC[C@@H]21` [Example 8, N-[(3aR,4R,6aS)-4-methyloctahydrocyclopenta[c]pyrrol-4-yl]benzamide], the IC50 stood at 26.3 µM.
